Data on 1 molecule can be found in article PMC3726599, “A Metabolically-Stabilized Phosphonate Analog of Lysophosphatidic Acid Attenuates Collagen-Induced Arthritis” (PLoS ONE, 2013).

In one test the target is T1, recombinant ATX (Homo sapiens, UniProt Q13822).
T1 construct: purchased SinoBiological Inc (main data); R&D (additional Km values)
Kind of test: TOOS activity assay, LPC hydrolysis by recombinant ATX. It is filed as biochemical. The settings on record: for Vmax of ATX in presence of BrP-LPA: 16:0 LPC 100–400 μΜ, mean(std); for % Inhibition at 10 μΜ: BrP-LPA 10 μΜ; for IC50: [S] 50 μΜ, 2 nM ATX. The procedure: ATX/LysoPLD activity was assessed based on the amount of choline released from LPC with the use of TOOS (N-ethyl-N-(2-hydoroxy-3-sulfopropyl)-3-methylaniline) reagent. In this assay ATX-mediated LPC-liberated choline is oxidised by choline oxidase to betaine and hydrogen peroxide (H2O2). The latter in the presence of horseradish peroxidase reacts with TOOS and 4-aminoantipyrene (4-AAP) to form a pink quinoneimine dye measured at 555 nm.
Diluted plasma samples (100 fold dilution; final EDTA concentration 0.5 mM) or recombinant ATX protein (2 nM) were incubated with LPC in the presence of 100 mmol/l Tris–HCl/pH 9.0, 500 mmol/l NaCl, 5 mmol/l MgCl2, 5 mmol/l CaCl2, 60 μM CoCl2 and 0.05% Triton X-100 for 3 h at 37°C at a final volume of 100 μl. It should be noted that EDTA was used not only as an anticoagulant but also as an inhibitor of ATX activity ex vivo [46], in order to suppress artificial LPA production during blood withdrawal and plasma preparation; this is because the same samples were used in phospholipid measurements.
The liberated choline was detected by adding 100 μl of a color mix containing 4-AAP and TOOS (0.3 mM), horseradish peroxidase (5.3 UnitmL^−1) and choline oxidase (2 UnitmL^−1). Absorbance was measured at 555 nm and data were analyzed using the statistical software package Prism 4.0 (Graphpad Software Inc, La Jolla, CA, USA). For each sample and control the absorbance was plotted against time and the slope (da/min) for the linear (steady-state) portion of each reaction profile was calculated. Absorbance units were converted to nmol of choline/min/ml by comparison with a choline standard curve or by use of the extinction coefficient for the quinoneimine dye according to the following equation: [drawing 1] Where Vt* is the total volume of reaction in ml (0.2 ml); Vs* is the volume of sample in ml; e is the millimolar extinction coefficient of quinoneimine dye under the assay conditions (e = e = […]); and 1/2: Factor based on the fact that 1 mol of hydrogen peroxide produces 1/2 mol of quinoneimine dye.
The biochemistry of lyso-PLD was assessed by following the kinetics data using a wide panel of different ATX substrates [FS-3, different LPC species (14:0, 16:0, 18:0, 18:1)], three different recombinant ATX proteins (R&D, Sino-Biological and Echelon) and three different ATX activity assays (FS-3, TOOS, Amplex Red). The ATX activity was measured at different substrate concentrations (typically from 1-1000 μM) in order to examine whether ATX follows Michaelis-Menten kinetics. The Michaelis constant (Km) was obtained by fitting the substrate dependence of V (ATX activity) to a rectangular hyperbola using the non-linear regression analysis of the statistical software package Prism 4.0 (GraphPad Software, Inc.). Km and Vmax were evaluated from the rectangular hyperbola curve with the use of GraphPad software.
For in vitro inhibition measurements, BrP-LPA was dissolved in water as a stock solution (4 mM) and appropriate dilutions were made in water. The inhibition of ATX by BrP-LPA was measured employing 2 nM recombinant ATX, 50 μΜ LPC (14:0, 16:0, 18:0) and 0.01 to 100 μmol/L of BrP-LPA (final concentrations). The in vitro inhibition of ATX by BrP-LPA was evaluated with three different assays (FS-3, Amplex Red, and TOOS). […] BrP-LPA was also tested for its ability to inhibit mouse plasma ATX activity. Diluted mouse plasma was used as the source of ATX and the analysis of inhibition was made with TOOS as the in vitro inhibition assay.
The inhibition model (competitive, noncompetitive, or mixed type inhibition) was evaluated by graphical analysis with Lineweaver–Burk double reciprocal plots (1/[velocity] versus 1/[substrate]) and Cornish-Bowden plot ([substrate]/[velocity] versus [Inhibitor]). These plots were generated by the measurement of ATX activity in the presence of different BrP-LPA concentrations (0–10 μΜ) and increased amounts of 16:0 LPC (100, 200, 400 μΜ). […]

Test [1] deals with non-small cell lung cancer xenograft. Set-up: method as in PMID 20143443. The settings on record: three-dimensional non-small cell lung cancer xenograft; cited from earlier work.
In test [2] the test system is transformed NIH3T3 cells expressing ras and ATX. Set-up: method as in PMID 18454946. The settings on record: cited from earlier work.
Another test deals with LPA2. The settings on record: Ca++ mobilization, RH7777 cells; kind of constant not given; read-out: inhibition of LPA2; cited from earlier work.
The test system of another test is liver tumor. Set-up: method as in earlier work. The settings on record: in vivo; cited from earlier work.

On to `CCCCCCCCCCCCCCCC(=O)OC[C@@H](O)CC(Br)P(=O)(O)O` (stereo partly drawn) [BrP-LPA, 1-bromo-3(S)-hydroxy-4-(palmitoyloxy)butyl-phosphonate], for which, on recombinant ATX (16:0 LPC as substrate, Cornish-Bowden and Lineweaver-Burk plots), the “mode of inhibition of ATX lysoPLD activity” value is “competitive”. Besides, the “Vmax of ATX in presence of BrP-LPA” value on recombinant ATX (BrP-LPA 1 μM) is recorded as 51(3) nmole/min/ml; at recombinant ATX (BrP-LPA 3 μM) it was 71(4) nmole/min/ml; at recombinant ATX (BrP-LPA 10 μM), 54(13) nmole/min/ml. Also, the % Inhibition (usually the drop in the measured response relative to a control, in per cent) at 10 μΜ was found to be 80% on recombinant ATX (TOOS, 16:0 LPC 50 μΜ) and 70% on recombinant ATX (TOOS, 18:0 LPC 50 μΜ). On recombinant ATX (TOOS, 18:0 LPC, Cheng-Prusoff from IC50), the Ki (in general, a measure of affinity in units of concentration, obtained from inhibition or displacement) amounted to 600 ± 110 nM. Besides, the IC50 was 700 ± 200 nM on recombinant ATX (TOOS, substrate 16:0 LPC, mean±std of two experiments); 900 ± 100 nM at recombinant ATX (TOOS, substrate 18:0 LPC, mean±std); 1400 nM in the test with LPA2. Moreover, the “tumor growth and angiogenesis” value in test [1] was “inhibit tumor growth and angiogenesis”. The decrease of chemotaxis in test [2] was 23%. Also, the “liver tumor weight and volume” value in the test on liver tumor is “reduce liver tumor weight and volume in vivo”.
